Experimental data as given in patent US20140230091A1, “MODIFIED PLANTS WITH INCREASED OIL CONTENT” (BROOKHAVEN SCIENCE ASSOCIATES, LLC, priority 2011, published 2014).

Assays:
[1] = system: genes encoding plastidic ACCase subunits; assay: qPCR analysis of genes encoding plastidic ACCase subunits; type: cell-based, Brassica napus; conditions: 10 mM Tween-80, three hour treatment; mean of three repeats ± SE; 0 mM = 1
Description: RNA was isolated from cultured cells using Trizol Reagent (Invitrogen, Carlsbad, Calif., USA) and was treated with DNase. cDNA was synthesized from 1 μg of total RNA using the Bio-Rad (Hercules, Calif., USA) iScript cDNA synthesis kit. qPCR was performed with 1:50 of the cDNA product and SSO Fast EvaGreen supermix (Bio-Rad). Reference genes were ACT7 and UBC21 using primers as described previously (Chen et al. 2010 Anal Biochem, 405, 138-140). Primers for experimental genes were as follows: BC, biotin carboxylase (GenBank:A Y034410.1), F-[…] (SEQ ID No. 28) and R-[…] (SEQ ID No. 29); BCCP, biotin carboxyl carrier protein (GenBank: X90730.1), F-[…] (SEQ ID No. 30), R-[…] (SEQ ID No. 31); CT-α, carboxytransferase-α (GenBank GQ341624.1), F-[…] (SEQ ID No. 32), R-[…] (SEQ ID No. 33); CT-β, carboxytransferase-β (GenBank: Z50868.1), F-[…] (SEQ ID No. 34), R-[…] (SEQ ID No. 35). Relative expression level was calculated using REST software (Qiagen, Valencia, Calif., USA).
Gene expression analysis and enzyme assays were performed to better understand the apparent reduction in ACCase activity during Tween-80 feeding. Quantitative real-time PCR was used to measure the expression of genes encoding plastidic ACCase subunits. The specific genes selected for analysis were those originally identified as being embryo expressed in Brassica napus plants (Elborough et al. 1996, Biochemical Journal, 315, 103-112). […] Desalted extracts gave the same result. […] If dephosphorylation is involved in feedback, then treatment with phosphatase would be expected to reduce ACCase activity from inhibited cells to a lesser extent than from the control. If PII interaction is involved, then it is possible that incubation in the presence of 2-oxoglutarate would […] ACCase from a Tween-fed extract more than the control.

[2] = system: fatty acid synthesis in B. napus cells; assay: 14C-acetate / 14C-malonate labeling of lipids (feedback inhibition of fatty acid synthesis); type: cell-based, Brassica napus
Description: All radioisotopes were obtained from American Radiolabeled Chemicals (St. Louis, Mo. USA). Labeling was conducted on cells 5 days after subculturing with a culture density of ˜20 mg FW mL^−1 and that had medium refreshed 16 h prior. For labeling, three 1 mL aliquots of cells were carefully removed from each flask and were labeled with either 0.2 μCi of 1,2-^14C-acetate (50-60 mCi mmol^−1) or 2-^14C-malonate (40-60 mCi mmol^−1) for 15 minutes at 25° C. with occasional shaking. Haloxyfop (Sigma) was dissolved in DMSO and added 30 min prior to labeling. Lipids were extracted and separated by TLC as described above. Radioactivity was detected by phosphorimaging and was quantified using ImageQuant software (GE Healthcare, Piscataway, N.J., USA). Incorporation of label into individual fatty acids was determined by making FAMEs as described above, separating the methyl esters by TLC as described in (Koo, Fulda, Browse and Ohlrogge 2005, Plant J, 44, 620-632) and measuring radioactivity by phosphorimaging.
Feedback inhibition of fatty acid synthesis was measured by the addition of a ^14C-acetate tracer. […] Sterol synthesis is dependent on acetyl-CoA and ATP, both of which are required for fatty acid synthesis. Therefore, if fatty acid synthesis is inhibited due to substrate limitation; so should be sterol biosynthesis. ^14C-acetate incorporation into sterols was unaffected by Tween-80 feeding, while incorporation into free fatty acids mirrored that of total lipids (FIG. 5), showing that the effect is restricted to fatty acid synthesis. […] Three hour time points were used for the remainder of this study to separate the period of maximum feedback inhibition from any lipid homeostatic mechanisms arising from the gross fatty acid compositional changes caused by long term Tween-80 feeding.
Plants contain plastidic and cytosolic ACCase and F AS enzyme systems, both of which are capable of incorporating ^14C-acetate into fatty acids. Comparing the distribution of label in individual fatty acid species can therefore provide information on the relative contribution of these pathways. […] The degree to which ^14C-acetate incorporation is inhibited by haloxyfop is proportional to cytosolic elongation activity, whereas haloxyfop-resistant incorporation is from the de nova pathway inside the plastid.
To separate these possibilities, we exploited the fact that exogenous malonate can be converted to malonyl-CoA and used by FAS, bypassing the ACCase reaction (Kannangara et al. 1973, Plant Physiol, 52, 156-161). If ACCase is the only point of inhibition then the rate of ^14C-malonate labeling of de novo fatty acids should be the same in cultures with or without Tween-80. […] Therefore ACCase, and not F AS, is inhibited by Tween-80 feeding. When combined, the data from FIG. 6 unambiguously identify plastidic ACCase as the target of Tween-80 induced feedback inhibition.

Relative gene expression BC [1]: 0.91 ± 0.17
Relative gene expression BCCP [1]: 1.32 ± 0.58
Relative gene expression CT-α [1]: 1.02 ± 0.33
Relative gene expression CT-β [1]: 1.18 ± 0.29
Substance: Tween-80
reduction of incorporation of 14C-acetate into fatty acids ([2]; 3 hours of 10 mM Tween-80 feeding): 40%
incorporation of 14C-malonate into 16 and 18 carbon fatty acids ([2]; 3 hours of 10 mM Tween-80 feeding, compared to 14C-acetate labeled controls): not inhibited
14C-acetate incorporation into sterols ([2]; Tween-80 feeding): unaffected
reversibility of feedback inhibition after removal ([2]; after removal of Tween-80 following 3 hour exposure to 10 mM): completely reversible
haloxyfop-resistant 14C-acetate incorporation ([2]; cultures with 10 mM Tween-80): reduced by about half
Relative 14C-acetate incorporation (% control) ([2]; relative to a control sample without any Tweens, mean of three repeats ± SD): 50.9 ± 7.0 % control
reduction of rate of 14C-acetate incorporation into lipids ([2]; three hours after addition of 10 mM Tween-80): 40%
